In patent publication US20060069132A1, “Azolecarboxamide herbicides” (priority 2004, published 2006):

What was measured:
velvetleaf = assay: Test B pre-/postemergence herbicide test; type: in vivo, Abutilon theophrasti; conditions: for Velvetleaf plant response rating (0 to 100 scale) / Plant response rating, Velvetleaf: 0 = no effect, 100 = complete control, preemergence; for Velvetleaf plant response rating: postemergence
How it was run: (§1)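 Pre: seeds sown, then sprayed. Post: 1–4-leaf plants (2–18 cm) sprayed at the same time. Paddy: flooded, treated at 2-leaf stage. Formulation: non-phytotoxic solvent with surfactant. Greenhouse 13–15 days; visual 0–100 score relative to controls.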

corn = assay: Test B pre-/postemergence herbicide test; type: in vivo, Zea mays; conditions: for Corn plant response rating (0 to 100 scale) / Plant response rating, Corn: 0 = no effect, 100 = complete control, preemergence; for Corn plant response rating: postemergence
How it was run: as §1

ducksalad = assay: Test B flooded paddy test; type: in vivo, Heteranthera limosa; conditions: 1000 g ai/ha, scale 0 to 100 (0 no effect, 100 complete control)
How it was run: (§2)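 Formulated test chemicals went onto postemergence plants measuring 2 to 18 cm, at one to four leaves. For the paddy assay, species had reached two leaves. Scoring took place 13–15 days later by eye, relative to untreated plants, using 0 for no effect up to 100 for full control.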

morningglory = assay: Test B pre-/postemergence herbicide test; type: in vivo, Ipomoea coccinea; conditions: for Morningglory plant response rating (0 to 100 scale) / Plant response rating, Morningglory: 0 = no effect, 100 = complete control, preemergence; for Morningglory plant response rating: postemergence
How it was run: (§3)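 Plants compared with untreated controls 13–15 days post-treatment and given a visual 0–100 injury score. Applications: preemergence to seeds; postemergence at 1- to 4-leaf (2–18 cm); paddy species flooded, 2-leaf stage. Vehicle non-phytotoxic, surfactant included.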

cocklebur = assay: Test B pre-/postemergence herbicide test; type: in vivo, Xanthium strumarium; conditions: for Cocklebur plant response rating: postemergence, scale 0 (no effect) to 100 (complete control)
How it was run: as §3

Surinam grass = assay: Test B pre-/postemergence herbicide test; type: in vivo, Urochloa decumbens; conditions: for Surinam Grass plant response rating (0 to 100 scale) / Plant response rating, Surinam Grass: 0 = no effect, 100 = complete control, preemergence; for Surinam Grass plant response rating: postemergence
How it was run: as §1

rice [1] = assay: Test B pre-/postemergence herbicide test; type: in vivo, Oryza sativa; conditions: 0 = no effect, 100 = complete control, preemergence; for Rice plant response rating (0 to 100 scale): 125 g ai/ha; for Plant response rating, Rice: 500 g ai/ha, visual rating
How it was run: as §1

giant foxtail = assay: Test B pre-/postemergence herbicide test; type: in vivo, Setaria faberi; conditions: for Foxtail, Giant plant response rating (0 to 100 scale) / Plant response rating, Foxtail, Giant: 0 = no effect, 100 = complete control, preemergence; for Foxtail, Giant plant response rating: postemergence
How it was run: as §1

pigweed = assay: Test B pre-/postemergence herbicide test; type: in vivo, Amaranthus retroflexus; conditions: for Pigweed plant response rating (0 to 100 scale) / Plant response rating, Pigweed: 0 = no effect, 100 = complete control, preemergence; for Pigweed plant response rating: postemergence
How it was run: as §1

large crabgrass = assay: Test B pre-/postemergence herbicide test; type: in vivo, Digitaria sanguinalis; conditions: for Crabgrass, Large plant response rating (0 to 100 scale) / Plant response rating, Crabgrass, Large: 0 = no effect, 100 = complete control, preemergence; for Crabgrass, Large plant response rating: postemergence
How it was run: as §1

blackgrass = assay: Test B postemergence herbicide test; type: in vivo, Alopecurus myosuroides; conditions: postemergence, visual rating, scale 0 (no effect) to 100 (complete control)
How it was run: as §2

barnyardgrass [2] = assay: Test B flooded paddy test; type: in vivo, Echinochloa crus-galli; conditions: 1000 g ai/ha, scale 0 to 100 (0 no effect, 100 complete control)
How it was run: as §2

wild oat = assay: Test B postemergence herbicide test; type: in vivo, Avena fatua; conditions: postemergence
How it was run: (§4)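 After treating 2-leaf paddy plants or 2–18 cm postemergence plants (1 to 4 leaves) with formulated chemical, researchers kept them in a greenhouse for 13–15 days. Effects were judged visually versus controls: 0 indicates none, 100 total control.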

wheat = assay: Test B postemergence herbicide test; type: in vivo, Triticum aestivum; parameters: key to Wheat plant response rating: 0 = no effect, 100 = complete control; conditions: postemergence
How it was run: as §4

lambsquarters = assay: Test B pre-/postemergence herbicide test; type: in vivo, Chenopodium album; conditions: for Lambsquarters plant response rating (0 to 100 scale) / Plant response rating, Lambsquarters: 0 = no effect, 100 = complete control, preemergence; for Lambsquarters plant response rating: postemergence
How it was run: as §1

rice [3] = assay: Test B flooded paddy test; type: in vivo, Oryza sativa; conditions: 1000 g ai/ha, scale 0 to 100 (0 no effect, 100 complete control)
How it was run: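 Plants grow to 1- to 4-leaf stage (2–18 cm) for postemergence spraying, or to 2-leaf stage for the paddy test. Formulated compound is applied. Greenhouse holding lasts 13–15 days. Response is scored visually relative to controls, 0 no effect to 100 complete control; a dash means no result.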

[4] = tested on: small flower umbrella sedge; assay: Test B flooded paddy test; type: in vivo, Cyperus difformis; conditions: 1000 g ai/ha, scale 0 to 100 (0 no effect, 100 complete control)
How it was run: as §2

barnyardgrass [5] = assay: Test B pre-/postemergence herbicide test; type: in vivo, Echinochloa crus-galli; conditions: for Barnyardgrass plant response rating (0 to 100 scale) / Plant response rating, Barnyardgrass: 0 = no effect, 100 = complete control, preemergence; for Plant response rating, Barnyardgrass / Barnyardgrass plant response rating: visual rating; for Barnyardgrass plant response rating: postemergence, scale 0 (no effect) to 100 (complete control)
How it was run: as §3

[6] = 125 g ai/ha, visual rating, scale 0 (no effect) to 100 (complete control)
[7] = 500 g ai/ha, scale 0 to 100, 0 is no effect, 100 is complete control
[8] = 125 g ai/ha, 0 = no effect, 100 = complete control, preemergence

CCn1nc(C(C)(C)C)cc1C(=O)Nc1cccc(C(=O)N(C)OC)n1 [Compound 246]
80: Plant response rating, Surinam Grass (Surinam grass; 500 g ai/ha, visual rating)
90: Plant response rating, Velvetleaf (velvetleaf; 500 g ai/ha, visual rating) | Plant response rating, Foxtail, Giant (giant foxtail; 500 g ai/ha, visual rating) | Plant response rating, Barnyardgrass (barnyardgrass [5]; 500 g ai/ha)
60: Velvetleaf plant response rating (0 to 100 scale) (velvetleaf; 125 g ai/ha) | Velvetleaf plant response rating (velvetleaf; [7]) | Pigweed plant response rating (pigweed; [7]) | Rice plant response rating (rice [3]) | Barnyardgrass plant response rating (0 to 100 scale) (barnyardgrass [5]; 125 g ai/ha)
10: Corn plant response rating (corn; [7]) | Plant response rating, Morningglory (morningglory; 500 g ai/ha, visual rating) | Morningglory plant response rating (morningglory; [7]) | Crabgrass, Large plant response rating (large crabgrass; [6]) | Oat, Wild plant response rating (wild oat; [6])
100: Pigweed plant response rating (0 to 100 scale) (pigweed; 125 g ai/ha) | Plant response rating, Pigweed (pigweed; 500 g ai/ha, visual rating) | Plant response rating, Crabgrass, Large (large crabgrass; 500 g ai/ha, visual rating) | Plant response rating, Lambsquarters (lambsquarters; 500 g ai/ha, visual rating)
40: Rice plant response rating (0 to 100 scale) (rice [1])
0: Corn plant response rating (0 to 100 scale) (corn; 125 g ai/ha) | Corn plant response rating (corn; [6]) | Morningglory plant response rating (0 to 100 scale) (morningglory; 125 g ai/ha) | Morningglory plant response rating (morningglory; [6]) | Cocklebur plant response rating (0 to 100 scale) (cocklebur; [8]) | Plant response rating, Cocklebur (cocklebur; 500 g ai/ha, visual rating, 0 = no effect, 100 = complete control, preemergence) | Blackgrass plant response rating (blackgrass; 125 g ai/ha) | Blackgrass plant response rating (blackgrass; 500 g ai/ha) | Wheat plant response rating (wheat; [6])
20: Plant response rating, Corn (corn; 500 g ai/ha, visual rating) | Cocklebur plant response rating (cocklebur; 125 g ai/ha, visual rating) | Surinam Grass plant response rating (Surinam grass; [6]) | Surinam Grass plant response rating (Surinam grass; [7]) | Crabgrass, Large plant response rating (large crabgrass; [7]) | Oat, Wild plant response rating (wild oat; [7])
30: Velvetleaf plant response rating (velvetleaf; [6]) | Cocklebur plant response rating (cocklebur; 500 g ai/ha, visual rating) | Surinam Grass plant response rating (0 to 100 scale) (Surinam grass; 125 g ai/ha) | Foxtail, Giant plant response rating (0 to 100 scale) (giant foxtail; 125 g ai/ha) | Foxtail, Giant plant response rating (giant foxtail; [6]) | Foxtail, Giant plant response rating (giant foxtail; [7]) | Wheat plant response rating (wheat; [7]) | Barnyardgrass plant response rating (barnyardgrass [5]; 125 g ai/ha)
70: Plant response rating, Rice (rice [1]) | Crabgrass, Large plant response rating (0 to 100 scale) (large crabgrass; 125 g ai/ha) | Lambsquarters plant response rating (0 to 100 scale) (lambsquarters; 125 g ai/ha) | Lambsquarters plant response rating (lambsquarters; [7]) | Barnyardgrass plant response rating (barnyardgrass [5]; 500 g ai/ha)
50: Ducksalad plant response rating (ducksalad) | Pigweed plant response rating (pigweed; [6]) | Barnyardgrass plant response rating (barnyardgrass [2]) | Lambsquarters plant response rating (lambsquarters; [6]) | Sedge, Umbrella plant response rating [4]

C=CCN(CC=C)C(=O)c1cncc(NC(=O)c2cc(C(C)(C)C)nn2CC)c1 [Compound 262]
100: Plant response rating, Pigweed (pigweed; 500 g ai/ha, visual rating)
90: Plant response rating, Lambsquarters (lambsquarters; 500 g ai/ha, visual rating)
30: Plant response rating, Crabgrass, Large (large crabgrass; 500 g ai/ha, visual rating)
70: Pigweed plant response rating (pigweed; [6])
20: Velvetleaf plant response rating (velvetleaf; [6]) | Velvetleaf plant response rating (velvetleaf; [7]) | Corn plant response rating (corn; [7]) | Surinam Grass plant response rating (Surinam grass; [7]) | Foxtail, Giant plant response rating (giant foxtail; [7]) | Crabgrass, Large plant response rating (large crabgrass; [7]) | Blackgrass plant response rating (blackgrass; 500 g ai/ha)
10: Cocklebur plant response rating (cocklebur; 500 g ai/ha, visual rating) | Plant response rating, Surinam Grass (Surinam grass; 500 g ai/ha, visual rating) | Foxtail, Giant plant response rating (giant foxtail; [6]) | Wheat plant response rating (wheat; [7]) | Plant response rating, Barnyardgrass (barnyardgrass [5]; 500 g ai/ha) | Barnyardgrass plant response rating (barnyardgrass [5]; 500 g ai/ha)
0: Velvetleaf plant response rating (0 to 100 scale) (velvetleaf; 125 g ai/ha) | Corn plant response rating (0 to 100 scale) (corn; 125 g ai/ha) | Plant response rating, Corn (corn; 500 g ai/ha, visual rating) | Corn plant response rating (corn; [6]) | Ducksalad plant response rating (ducksalad) | Morningglory plant response rating (0 to 100 scale) (morningglory; 125 g ai/ha) | Plant response rating, Morningglory (morningglory; 500 g ai/ha, visual rating) | Morningglory plant response rating (morningglory; [6]) | Morningglory plant response rating (morningglory; [7]) | Cocklebur plant response rating (0 to 100 scale) (cocklebur; [8]) | Cocklebur plant response rating (cocklebur; 125 g ai/ha, visual rating) | Surinam Grass plant response rating (0 to 100 scale) (Surinam grass; 125 g ai/ha) | Surinam Grass plant response rating (Surinam grass; [6]) | Rice plant response rating (0 to 100 scale) (rice [1]) | Plant response rating, Rice (rice [1]) | Foxtail, Giant plant response rating (0 to 100 scale) (giant foxtail; 125 g ai/ha) | Plant response rating, Foxtail, Giant (giant foxtail; 500 g ai/ha, visual rating) | Crabgrass, Large plant response rating (0 to 100 scale) (large crabgrass; 125 g ai/ha) | Crabgrass, Large plant response rating (large crabgrass; [6]) | Blackgrass plant response rating (blackgrass; 125 g ai/ha) | Barnyardgrass plant response rating (barnyardgrass [2]) | Oat, Wild plant response rating (wild oat; [6]) | Oat, Wild plant response rating (wild oat; [7]) | Wheat plant response rating (wheat; [6]) | Rice plant response rating (rice [3]) | Sedge, Umbrella plant response rating [4] | Barnyardgrass plant response rating (0 to 100 scale) (barnyardgrass [5]; 125 g ai/ha) | Barnyardgrass plant response rating (barnyardgrass [5]; 125 g ai/ha)
80: Plant response rating, Velvetleaf (velvetleaf; 500 g ai/ha, visual rating) | Pigweed plant response rating (pigweed; [7]) | Lambsquarters plant response rating (lambsquarters; [7])
50: Pigweed plant response rating (0 to 100 scale) (pigweed; 125 g ai/ha) | Lambsquarters plant response rating (lambsquarters; [6])
40: Lambsquarters plant response rating (0 to 100 scale) (lambsquarters; 125 g ai/ha)
